ChEMBL document CHEMBL3804804, “Synthesis and antimycobacterial activity of N-(2-aminopurin-6-yl) and N-(purin-6-yl) amino acids and dipeptides” (Bioorg Med Chem Lett, 2016)
In brackets after ≈: the same amount, converted by molar mass.

Assays:
[1] = system: Mycobacterium tuberculosis; assay: Antimycobacterial activity against Mycobacterium tuberculosis H37Rv after 10 days by micro broth dilution method; type: functional; conditions: 240 h
[2] = system: Mycobacterium avium; assay: Antimycobacterial activity against Mycobacterium avium after 10 days by micro broth dilution method; type: functional; conditions: 240 h
[3] = Cytotoxicity against human FEH cells after 72 hrs by MTT assay; type: cell-based
[4] = system: Mycolicibacter terrae; assay: Antimycobacterial activity against Mycobacterium terrae after 10 days by micro broth dilution method; type: functional; conditions: 240 h

Row | Compound | MIC [1] [µg/mL] | MIC [2] [µg/mL] | IC50 [3] [µM] | MIC [4] [µg/mL]
1 | O=C(O)CCNc1[nH]cnc2ncnc1-2 | 12.5 (≈ 60.3 µM) | – | – | –
2 | O=C(O)CCCNc1ncnc2[nH]cnc12 | 12.5 (≈ 56.5 µM) | – | – | –
3 | CC(=O)Nc1nc(N[C@H](C(=O)OC(C)(C)C)C(C)C)c2nc[nH]c2n1 | 12.5 (≈ 35.9 µM) | – | – | –
4 | COC(=O)[C@H](CCSC)NC(=O)CNc1ncnc2[nH]cnc12 | 12.5 (≈ 36.9 µM) | – | – | –
5 | C[C@H](NC(=O)CNc1nc(N)nc2[nH]cnc12)C(=O)O.O | 6.25 | – | – | –
6 | CC(C)C[C@H](NC(=O)CNc1ncnc2[nH]cnc12)C(=O)O.O | 12.5 | – | – | –
7 | C[C@H](Nc1nc(N)nc2[nH]cnc12)C(=O)O | 12.5 (≈ 56.3 µM) | – | – | –
8 | CC(=O)Nc1nc(N[C@@H](C)C(=O)OC(C)(C)C)c2nc[nH]c2n1 | 12.5 (≈ 39 µM) | – | – | –
9 | CC(=O)Nc1nc(N2CCC[C@H]2C(=O)OC(C)(C)C)c2nc[nH]c2n1 | 6.25 (≈ 18 µM) | 6.25 (≈ 18 µM) | > 50 | 6.25 (≈ 18 µM)
10 | C[C@H](NC(=O)CNc1ncnc2[nH]cnc12)C(=O)O.O | 12.5 | – | – | –
11 | CSCC[C@H](NC(=O)CNc1ncnc2[nH]cnc12)C(=O)O.O | 12.5 | – | – | –
12 | CC(=O)Nc1nc(N[C@@H](Cc2ccccc2)C(=O)OC(C)(C)C)c2nc[nH]c2n1 | 12.5 (≈ 31.5 µM) | – | – | –
13 | CC(=O)Nc1nc(NCC(=O)O)c2nc[nH]c2n1 | 0.7 (≈ 2.8 µM) | 0.7 (≈ 2.8 µM) | > 50 | 0.7 (≈ 2.8 µM)
14 | CC(C)[C@H](NC(=O)CNc1nc(N)nc2[nH]cnc12)C(=O)O.O.O | 12.5 | – | – | –
15 | O.O=C(CNc1ncnc2[nH]cnc12)N[C@@H](Cc1ccccc1)C(=O)O | 3.1 | – | > 50 | –
16 | CC(C)[C@H](Nc1nc(N)nc2[nH]cnc12)C(=O)O | 6.25 (≈ 25 µM) | 6.25 (≈ 25 µM) | > 50 | 6.25 (≈ 25 µM)
17 | COC(=O)[C@H](CC(C)C)NC(=O)CNc1ncnc2[nH]cnc12 | 12.5 (≈ 39 µM) | – | – | –
18 | COC(=O)[C@@H](NC(=O)CNc1nc(NC(C)=O)nc2[nH]cnc12)C(C)C | 12.5 (≈ 34.4 µM) | – | – | –
19 | CSCC[C@H](NC(=O)CNc1nc(N)nc2[nH]cnc12)C(=O)O.O | 3.1 | 3.1 | > 50 | 3.1
20 | COC(=O)[C@H](C)NC(=O)CNc1ncnc2[nH]cnc12 | 12.5 (≈ 44.9 µM) | – | – | –
21 | COC(=O)[C@H](C)NC(=O)CNc1nc(NC(C)=O)nc2[nH]cnc12.O | 12.5 | – | – | –
22 | Nc1nc(NCC(=O)N[C@@H](CCC(=O)O)C(=O)O)c2nc[nH]c2n1 | 0.7 (≈ 2.08 µM) | 0.35 (≈ 1.04 µM) | > 50 | 0.35 (≈ 1.04 µM)

Row | Compound | MIC [1] [µg/mL] | MIC [2] [µg/mL] | IC50 [3] [µM] | MIC [4] [µg/mL]
23 | Nc1nc(NCC(=O)N[C@@H](CC(=O)O)C(=O)O)c2nc[nH]c2n1 | 12.5 (≈ 38.7 µM) | – | – | –
24 | O=C(O)CNc1ncnc2[nH]cnc12 | 6.25 (≈ 32.4 µM) | – | – | –
25 | COC(=O)CC[C@H](NC(=O)CNc1nc(NC(C)=O)nc2[nH]cnc12)C(=O)OC | 12.5 (≈ 30.7 µM) | – | – | –
26 | Nc1nc(NCC(=O)N[C@@H](Cc2ccccc2)C(=O)O)c2nc[nH]c2n1.O.O | 6.25 | – | – | –
27 | COC(=O)[C@H](CC(C)C)NC(=O)CNc1nc(NC(C)=O)nc2[nH]cnc12 | 12.5 (≈ 33.1 µM) | – | – | –
28 | COC(=O)[C@H](Cc1ccccc1)NC(=O)CNc1nc(NC(C)=O)nc2[nH]cnc12 | 12.5 (≈ 30.4 µM) | – | – | –
29 | COC(=O)[C@H](CCSC)NC(=O)CNc1nc(NC(C)=O)nc2[nH]cnc12 | 3.1 (≈ 7.84 µM) | 3.1 (≈ 7.84 µM) | > 50 | 1.5 (≈ 3.79 µM)
30 | Nc1nc(N[C@@H](Cc2ccccc2)C(=O)O)c2nc[nH]c2n1 | 12.5 (≈ 41.9 µM) | – | – | –
31 | CC(C)[C@H](NC(=O)CNc1ncnc2[nH]cnc12)C(=O)O.O | 12.5 | – | – | –
32 | Nc1nc(N2CCC[C@H]2C(=O)O)c2nc[nH]c2n1 | 12.5 (≈ 50.4 µM) | – | – | –
33 | COC(=O)CNc1nc(N)nc2[nH]cnc12.Cl.Cl | 6.25 | 6.25 | > 50 | 6.25
34 | COC(=O)C[C@H](NC(=O)CNc1nc(NC(C)=O)nc2[nH]cnc12)C(=O)OC | 12.5 (≈ 31.8 µM) | – | – | –
35 | O=C(O)CCCCCNc1ncnc2[nH]cnc12 | 12.5 (≈ 50.1 µM) | – | – | –
36 | Nc1nc(NCC(=O)O)c2nc[nH]c2n1 | 12.5 (≈ 60 µM) | – | – | –
37 | COC(=O)[C@@H](NC(=O)CNc1ncnc2[nH]cnc12)C(C)C | 12.5 (≈ 40.8 µM) | – | – | –
38 | CC(C)C[C@H](NC(=O)CNc1nc(N)nc2[nH]cnc12)C(=O)O.O | 12.5 | – | – | –
39 | CC(=O)Nc1nc(N[C@@H](CC(=O)OC(C)(C)C)C(=O)OC(C)(C)C)c2nc[nH]c2n1 | 12.5 (≈ 29.7 µM) | – | – | –
40 | O.O=C(O)CC[C@H](NC(=O)CNc1ncnc2[nH]cnc12)C(=O)O | 0.7 | 0.7 | > 50 | 0.7
41 | COC(=O)[C@H](Cc1ccccc1)NC(=O)CNc1ncnc2[nH]cnc12 | 1.5 (≈ 4.23 µM) | 1.5 (≈ 4.23 µM) | > 50 | 1.5 (≈ 4.23 µM)
42 | COC(=O)CC[C@H](NC(=O)CNc1ncnc2[nH]cnc12)C(=O)OC | 12.5 (≈ 35.7 µM) | – | – | –
43 | NNC(=O)c1ccncc1 [ISONIAZID] | 0.1 (≈ 0.729 µM) | 0.1 (≈ 0.729 µM) | – | 0.1 (≈ 0.729 µM)
44 | CC1COc2c(N3CCN(C)CC3)c(F)cc3c(=O)c(C(=O)O)cn1c23 (stereo unspecified) [OFLOXACIN] | 0.1 (≈ 0.277 µM) | 0.1 (≈ 0.277 µM) | – | 0.1 (≈ 0.277 µM)
